Assay results as given in US20090324616A1, “DIFFERENTIAL CYTOKINE EXPRESSION IN HUMAN CANCER” (priority 2006, published 2009).

T1: human Interleukin4 (IL4) (Homo sapiens, UniProt P05112)
T1 sequence (P05112 25-153): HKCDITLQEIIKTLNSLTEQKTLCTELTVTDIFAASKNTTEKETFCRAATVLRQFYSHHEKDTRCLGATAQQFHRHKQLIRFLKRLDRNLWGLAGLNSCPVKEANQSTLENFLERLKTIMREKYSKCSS

B1: IL-4: human recombinant IL-4 (Euroclone), used at 20 ng/ml (protein)
chain: T1 sequence (P05112 25-153)

Legend:
colon CSC = assay: Viability of colon CSC spheroids exposed to drugs; format: cell-based, human; details: cisplatinum 300 ng/ml, oxaliplatin 100 μM, TRAIL 200 ng/ml, FIG. 6a
Protocol: (§1) Survival and death assays. To evaluate apoptotic events the DNA staining and flow cytometry analysis were performed. The percentage of hypodiploid nuclei was evaluated as described in Stassi et al., Cancer Res. 2003, 63 (20):6784-90. Alternatively, human purified cancer cells were plated in 96-well plates in triplicate at 15,000 cells/well and cultured. The number of viable cells was detected by CellTiter Aqueous Assay Kit (Promega Corporation, WI, USA) following the instructions of manufacturer. HuT78 cells plated at […] and treated with CD95-activating antibody CH11 (200 ng/ml) were used as a positive control for cell death measurement.
(§2) To investigate the sensitivity of colon CSC to chemotherapeutic drugs, the viability of colon CSC spheroids exposed to cisplatinum (300 ng/ml) and oxaliplatin (100 μM) was measured, doses equivalent to those reached during cancer treatment in vivo. In addition, colon CSC were treated with the apoptosis-inducing death ligand TRAIL (200 ng/ml).

[1] = tested on: Primary (adherent) cells from human colon cancer specimens; assay: Viability of primary (adherent) colon cancer cells exposed to drugs; format: cell-based; details: cisplatinum 300 ng/ml, oxaliplatin 100 μM, TRAIL 200 ng/ml; FIG. 6a
Protocol: as §1, §2

[2] = tested on: colon cancer generated by CSC; assay: IL-4 neutralization in vivo, colon tumours generated by CSC; details: oxaliplatin i.p. once a week for 4 weeks, combined with control IgG; mice
Source text: Tumours were allowed to grow for 10 days (size ˜0.2 cm^3) and then treated intra-tumourally with neutralising antibodies against IL-4 or control IgG twice a week for 3 weeks.

breast cancer stem cells = assay: Apoptosis of breast cancer spheres, combination with doxorubicin; format: cell-based; details: 10 μg pre-treatment 24 hrs, then 5 μM doxorubicin 24 hrs; for sensitisation for doxorubicin induced apoptosis compared with IL-4 specific antibody (positive control): FIG. 11B; for amount of apoptotic breast cancer stem cells: compared with Doxorubicin alone, FIG. 11A
Protocol: To test for the ability of IL4R-Fc and IL4R-IL13R-Fc to induce apoptosis, both proteins were added to the growth medium of breast cancer stem cells either alone or in combination with doxorubicin. […] The cells were stained with orange acridine/ethidium bromide (red: dead cells; green: viable cells).

[3] = tested on: primary colon cancer cells; assay: Primary colon cancer cell viability (MTS), combination with oxaliplatin; format: cell-based; details: 10 μg pre-treatment 24 hrs, then 100 μM oxaliplatin 24 hrs; FIG. 11C
Protocol: On primary colon cancer cells the IL4R-Fc and IL4R-IL13R-Fc constructs were tested in combination with oxaliplatin treatment. Primary colon cancer cells pre-treated with PBS (w/o) or 10 μg of IL4R-Fc, IL4R-IL13R-Fc or anti IL4-antibody for 24 hrs and successively exposed for another 24 hrs to 100 μM oxaliplatin. The graphs show the percentage of cell viability measured by MTS analysis (CellTiter 96, Aquos, Promega).

human Interleukin4 (IL4) = molecular target: T1, human Interleukin4 (IL4); assay: IL-4-pull down assay; format: binding; details: 4 μg protein immobilized to Streptactin Sepharose, 400 ng IL4, 60 min; FIG. 10
Protocol: To test for specific IL-4 binding of IL4R-Fc and IL4R-IL13R-Fc, 4 μg of both proteins, respectively, were immobilized to Streptactin Sepharose via their Strep-Tag. The immobilized proteins were subsequently incubated for 60 min with 400 ng of recombinantly expressed human Interleukin4 (IL4) in a total volume of 400 μl phosphate buffered saline. Subsequently the beads were washed and bound proteins were specifically eluted with desthiobiotin in a total volume of 40 μl elution buffer. Eluted proteins were finally analysed via SDS-PAGE and Silver staining.

[4] = tested on: colon, breast, gastric and lung normal cells; assay: Cell growth of normal cells exposed to IL-4; format: cell-based, human; details: 20 ng/ml of IL-4; FIG. 3b
Protocol: (§3) Human primary cell purification. Normal and cancer tissues were digested for 2 hours with collagenase (1.5 mg/ml) (Gibco BRL., Grand Island, N.Y.) and hyaluronidase (20 μg/ml) (Sigma Chemical Co., St. Louis, Mo.) as previously described (1). Once digested, cells were maintained on plastic in DMEM medium (EuroClone Ltd., West York, UK) at 37° C. in a humidified atmosphere of 5% CO2. Following 12 further hours of culture, cancer cells were allowed to grow in monolayer for the immunocytochemistry or detached with trypsin+EDTA for functional, protein expression and gene transcript levels analyses. For colon and gastric cells culture, plastic was coated with[…] of collagen (Calbiochem GmbH, Darmstadt, Germany). […]
Survival and death assays. […] The percentage of hypodiploid nuclei was evaluated as described in Stassi et al., Cancer Res. 2003, 63 (20):6784-90. […] The number of viable cells was detected by CellTiter Aqueous Assay Kit (Promega Corporation, WI, USA) following the instructions of manufacturer. […]
In order to investigate the possible involvement of IL-4 on tumour cell survival, colon, breast, gastric and lung normal cells were exposed to 20 ng/ml of IL-4 and analyzed for cell growth.

[5] = tested on: cFLIP, PED/PEA-15, Bcl-xL and Bcl-2 in normal colon, breast, gastric and lung cells; assay: Anti-apoptotic protein expression in normal cells pre-incubated with IL-4; format: cell-based, human; details: gastric and lung cells pre-incubated with IL-4, FIG. 3c
Protocol: as §3
Protein isolation and western blotting analysis. […] Immunoblotting of Abs specific for actin (Ab-1, mouse IgM, Calbiochem, Darmstadt, Germany), CD95L (G2474, mouse IgG1, PharMingen, San Diego), CD95 (C-20, Santa Cruz Biotechnology), cFLIP (NF6 mouse IgG1, Alexis Biochemicals, Switzerland), PED/PEA-15 (rabbit IgG kindly provided by G. Condorelli), Bcl-2 (124, mouse IgG1, Upstate Biotechnology Inc.) and Bcl-XI (H-5, mouse IgG1, Santa Cruz Biotechnology) was detected by HRP-conjugated anti-mouse or anti-rabbit Abs (Amersham Biosciences UK Limited, England) and visualized with the chemiluminescence detection system (SuperSignal West Dura Extended duration Substrate, Pierce, Ill., USA). […]

binding of human IL-4 (pull down, SDS-PAGE and Silver staining) (human Interleukin4 (IL4))	Molecule	sensitivity to drug-induced apoptosis (viability) (colon CSC)	sensitivity in vitro (viability) [1]	sensitisation for doxorubicin induced apoptosis compared with IL-4 specific antibody (positive control) (breast cancer stem cells)	amount of apoptotic breast cancer stem cells (breast cancer stem cells)	cell viability (MTS) in comparison with oxaliplatin treatment alone [3]	further results
	N.N.[Cl][Pt][Cl] [cisplatinum]	significantly resistant	some sensitivity				
	O=C1[O][Pt]2([NH][C@@H]3CCCC[C@H]3[NH]2)[O]C1=O [oxaliplatin]	significantly resistant	some sensitivity				tumour size [2]: reduced tumour size
specific binding	IL4R-Fc: shortened extracellular domain of IL-4-Receptor-alpha (aa1-aa224) fused to the Fc-part of human IGHG1, with Flexstreptag-II			in the same range	clearly increased	reduced cell viability	
specific binding	IL4R-IL13R-Fc: IL-4-Receptor-alpha extracellular domain fused to IL13-receptor alpha extracellular domain and Fc-part of human IGHG1, with Flexstreptag-II			in the same range	clearly increased	reduced cell viability	
	TRAIL	significantly resistant	some sensitivity				
	B1						growth rate of colon, breast and lung normal cells [4]: significantly increased; protein levels of cFLIP, PED/PEA-15, Bcl-xL and Bcl-2 [5]: increased
